Test results from patent US12187723B2 (BRISTOL-MYERS SQUIBB COMPANY, priority 2019, dated 2025).
pIC50: −log10 of the molar value.

target: T1, human TLR7 (Homo sapiens, UniProt Q9NYK1); assay: TLR7 inhibition reporter assay (HEK-Blue SEAP); assay type: cell-based; conditions: HEK-Blue cells overexpressing human TLR7, gardiquimod 7.5 μM, 22 hour incubation
T1 construct: host or cells: HEK-Blue cells
T1 sequence (Q9NYK1 27-1049): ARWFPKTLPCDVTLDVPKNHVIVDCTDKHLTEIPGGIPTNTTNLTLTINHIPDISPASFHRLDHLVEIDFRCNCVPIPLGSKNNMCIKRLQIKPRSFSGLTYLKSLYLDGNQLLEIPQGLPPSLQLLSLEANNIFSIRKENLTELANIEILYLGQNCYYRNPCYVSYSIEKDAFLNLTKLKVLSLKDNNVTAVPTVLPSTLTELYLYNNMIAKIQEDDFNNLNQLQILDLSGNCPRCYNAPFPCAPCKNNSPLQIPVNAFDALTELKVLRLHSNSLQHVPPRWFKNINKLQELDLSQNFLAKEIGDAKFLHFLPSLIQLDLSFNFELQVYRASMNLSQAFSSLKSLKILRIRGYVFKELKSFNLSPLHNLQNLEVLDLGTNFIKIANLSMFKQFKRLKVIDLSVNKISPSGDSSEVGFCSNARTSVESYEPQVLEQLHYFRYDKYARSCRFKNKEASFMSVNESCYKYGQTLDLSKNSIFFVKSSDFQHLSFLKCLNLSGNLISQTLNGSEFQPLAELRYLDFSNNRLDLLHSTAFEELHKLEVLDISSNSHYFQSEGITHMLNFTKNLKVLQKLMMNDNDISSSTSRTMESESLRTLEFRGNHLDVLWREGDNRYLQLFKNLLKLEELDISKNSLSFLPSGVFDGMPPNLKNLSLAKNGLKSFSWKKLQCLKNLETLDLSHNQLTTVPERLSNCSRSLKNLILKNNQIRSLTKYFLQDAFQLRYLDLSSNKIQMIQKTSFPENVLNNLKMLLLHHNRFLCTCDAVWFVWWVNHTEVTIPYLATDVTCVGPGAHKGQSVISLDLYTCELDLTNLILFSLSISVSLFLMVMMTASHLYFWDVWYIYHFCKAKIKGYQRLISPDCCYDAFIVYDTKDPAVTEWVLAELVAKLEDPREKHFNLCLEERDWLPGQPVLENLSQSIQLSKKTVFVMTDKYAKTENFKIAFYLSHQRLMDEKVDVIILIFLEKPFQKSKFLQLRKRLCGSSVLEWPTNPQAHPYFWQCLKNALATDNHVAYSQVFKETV
Outline: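 22 h, 37° C, 5% CO2 incubation; compounds 0.05 nM-50 μM final; TLR7 cells 15000/well, TLR8 20,000/well. Readout: SEAP via HEK-Blue Detection medium. % inhibition = signal reduction versus agonist + DMSO wells, referenced to known inhibitor.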

pIC50 | SMILES
8.89 | COc1cc(-c2cc3[nH]c(=O)n([C@H]4CC[C@H](N(CC5CC5)CC5CC5)CC4)c3cc2C(C)C)cn2ncnc12 [Example 206, 1-((1r,4s)-4-(bis(cyclopropylmethyl)amino)cyclohexyl)-6-isopropyl-5-(8-methoxy-[1,2,4]triazolo[1,5-a]pyridin-6-yl)-1,3-dihydro-2H-benzo[d]imidazol-2-one]
8.74 | CCc1cc2c(cc1-c1cc(OC)c3ncnn3c1)[nH]c(=O)n2[C@H]1CC[C@@H](N(CC)CC)CC1 [Example 169, 1-((1s,4s)-4-(diethylamino)cyclohexyl)-6-ethyl-5-(8-methoxy-[1,2,4]triazolo[1,5-a]pyridin-6-yl)-1,3-dihydro-2H-benzo[d]imidazol-2-one]
8.45 | COc1cc(-c2cc3[nH]c(=O)n([C@H]4CC[C@H](N(C)C)CC4)c3cc2C(C)C)cn2ncnc12 [Example 202, 1-((1r,4r)-4-(dimethylamino)cyclohexyl)-6-isopropyl-5-(8-methoxy-[1,2,4]triazolo[1,5-a]pyridin-6-yl)-1,3-dihydro-2H-benzo[d]imidazol-2-one]
8.14 | COc1c(C)c(-c2cc3[nH]c(=O)n(C4CCC(N5CCC(F)(F)CC5)CC4)c3cc2C(C)C)cn2ncnc12 (single isomer, unassigned) [Example 229, 1-(4-(4,4-difluoropiperidin-1-yl)cyclohexyl)-6-isopropyl-5-(8-methoxy-7-methyl-[1,2,4]triazolo[1,5-a]pyridin-6-yl)-1,3-dihydro-2H-benzo[d]imidazol-2-one]
8.65 | COc1cc(-c2cc3[nH]c(=O)n([C@H]4CC[C@@H](NC5CCOCC5)CC4)c3cc2C(C)C)cn2ncnc12 [Example 193, 6-isopropyl-5-(8-methoxy-[1,2,4]triazolo[1,5-a]pyridin-6-yl)-1-((1s,4s)-4-((tetrahydro-2H-pyran-4-yl)amino)cyclohexyl)-1,3-dihydro-2H-benzo[d]imidazol-2-one]
9.10 | COc1cc(-c2cc3[nH]c(=O)n([C@H]4CC[C@@H](NCC(C)(C)C)CC4)c3cc2C(C)C)cn2ncnc12 [Example 197, 6-isopropyl-5-(8-methoxy-[1,2,4]triazolo[1,5-a]pyridin-6-yl)-1-((1s,4s)-4-(neopentylamino)cyclohexyl)-1,3-dihydro-2H-benzo[d]imidazol-2-one]
8.45 | COc1cc(-c2cc3[nH]c(=O)n(C4CCC(N5CC6(CCOCC6)C5)CC4)c3cc2C(C)C)cn2ncnc12 (single isomer, unassigned) [Example 236, 1-(4-(7-oxa-2-azaspiro[3.5]nonan-2-yl)cyclohexyl)-6-isopropyl-5-(8-methoxy-[1,2,4]triazolo[1,5-a]pyridin-6-yl)-1,3-dihydro-2H-benzo[d]imidazol-2-one]
9.09 | CCc1cc2c(cc1-c1cc(OC)c3ncnn3c1)[nH]c(=O)n2[C@@H]1CCCN(CC2CCC2)C1 [Example 181, (R)-1-(1-(cyclobutylmethyl)piperidin-3-yl)-6-ethyl-5-(8-methoxy-[1,2,4]triazolo[1,5-a]pyridin-6-yl)-1,3-dihydro-2H-benzo[d]imidazol-2-one]
8.85 | CCc1cc2c(cc1-c1cc(OC)c3ncnn3c1)[nH]c(=O)n2[C@@H]1CCCN(CC(C)(C)C)C1 [Example 180, (R)-6-ethyl-5-(8-methoxy-[1,2,4]triazolo[1,5-a]pyridin-6-yl)-1-(1-neopentylpiperidin-3-yl)-1,3-dihydro-2H-benzo[d]imidazol-2-one]
9.02 | Cc1c(-c2cc3[nH]c(=O)n([C@H]4CC[C@@H](NC(C)C)CC4)c3cc2C(C)C)cn2ncnc2c1C [Example 186, 5-(7,8-dimethyl-[1,2,4]triazolo[1,5-a]pyridin-6-yl)-6-isopropyl-1-((1s,4s)-4-(isopropylamino)cyclohexyl)-1,3-dihydro-2H-benzo[d]imidazol-2-one]
8.31 | CCC(CC)CN[C@H]1CC[C@@H](n2c(=O)[nH]c3cc(-c4cn5ncnc5c(C)c4C)c(C(C)C)cc32)CC1 [Example 198]
7.22 | COc1c(C)c(-c2cc3[nH]c(=O)n(C4CCC(N5CCC(F)(F)CC5)CC4)c3cc2C(C)C)cn2ncnc12 (single isomer, unassigned) [Example 230, 1-(4-(4,4-difluoropiperidin-1-yl)cyclohexyl)-6-isopropyl-5-(8-methoxy-7-methyl-[1,2,4]triazolo[1,5-a]pyridin-6-yl)-1,3-dihydro-2H-benzo[d]imidazol-2-one]
8.54 | CCc1cc2c(cc1-c1cc(OC)c3ncnn3c1)[nH]c(=O)n2[C@@H]1CCCN(CCOC)C1 [Example 227, (R)-6-ethyl-5-(8-methoxy-[1,2,4]triazolo[1,5-a]pyridin-6-yl)-1-(1-(2-methoxyethyl)piperidin-3-yl)-1,3-dihydro-2H-benzo[d]imidazol-2-one]
8.86 | CCCN[C@H]1CC[C@@H](n2c(=O)[nH]c3cc(-c4cc(OC)c5ncnn5c4)c(C(C)C)cc32)CC1 [Example 195, 6-isopropyl-5-(8-methoxy-[1,2,4]triazolo[1,5-a]pyridin-6-yl)-1-((1 s,4s)-4-(propylamino)cyclohexyl)-1,3-dihydro-2H-benzo[d]imidazol-2-one]
8.77 | COc1cc(-c2cc3[nH]c(=O)n(C4CCC(N5CCCC5)CC4)c3cc2C(C)C)cn2ncnc12 (centres unmarked) [Example 231, 6-isopropyl-5-(8-methoxy-[1,2,4]triazolo[1,5-a]pyridin-6-yl)-1-(4-(pyrrolidin-1-yl)cyclohexyl)-1,3-dihydro-2H-benzo[d]imidazol-2-one]
7.37 | COc1cc(-c2cc3[nH]c(=O)n(C4CCC(N5CCNC(=O)C5)CC4)c3cc2C(C)C)cn2ncnc12 (single isomer, unassigned) [Example 234, 6-isopropyl-5-(8-methoxy-[1,2,4]triazolo[1,5-a]pyridin-6-yl)-1-(4-(3-oxopiperazin-1-yl)cyclohexyl)-1,3-dihydro-2H-benzo[d]imidazol-2-one]
6.10 | Cc1cc2c(cc1-c1cc(C)c3ncnn3c1)[nH]c(=O)n2[C@H]1CCCN(C2COC2)C1 [Example 14, (S)-6-methyl-5-(8-methyl-[1,2,4]triazolo[1,5-a]pyridin-6-yl)-1-(1-(oxetan-3-yl)piperidin-3-yl)-1,3-dihydro-2H-benzo[d]imidazol-2-one]
7.60 | CCc1cc2c(cc1-c1cc(OC)c3ncnn3c1)[nH]c(=O)n2[C@@H]1CCCN(C2CCOC2)C1 (stereo partly drawn) [Example 212, 6-ethyl-5-(8-methoxy-[1,2,4]triazolo[1,5-a]pyridin-6-yl)-1-((3R)-1-(tetrahydrofuran-3-yl)piperidin-3-yl)-1,3-dihydro-2H-benzo[d]imidazol-2-one]
8.04 | Cc1c(-c2cc3[nH]c(=O)n([C@H]4CC[C@@H](NCC5CCOCC5)CC4)c3cc2C(C)C)cn2ncnc2c1C [Example 200, 5-(7,8-dimethyl-[1,2,4]triazolo[1,5-a]pyridin-6-yl)-6-isopropyl-1-((1s,4s)-4-(((tetrahydro-2H-pyran-4-yl)methyl)amino)cyclohexyl)-1,3-dihydro-2H-benzo[d]imidazol-2-one]
8.47 | Cc1c(-c2cc3[nH]c(=O)n([C@H]4CC[C@@H](N(C)C)CC4)c3cc2C(C)C)cn2ncnc2c1C [Example 185, 5-(7,8-dimethyl-[1,2,4]triazolo[1,5-a]pyridin-6-yl)-1-((1s,4s)-4-(dimethylamino)cyclohexyl)-6-isopropyl-1,3-dihydro-2H-benzo[d]imidazol-2-one]
7.84 | COc1cc(-c2cc3[nH]c(=O)n([C@@H]4CCCN(C5CCOC5)C4)c3cc2C(C)C)cn2ncnc12 (stereo partly drawn) [Example 216, 6-isopropyl-5-(8-methoxy-[1,2,4]triazolo[1,5-a]pyridin-6-yl)-1-((3R)-1-(tetrahydrofuran-3-yl)piperidin-3-yl)-1,3-dihydro-2H-benzo[d]imidazol-2-one]
7.77 | CCN1CCC[C@@H](n2c(=O)[nH]c3cc(-c4cc(C)c5ncnn5c4)c(C)cc32)C1 [Example 16, (R)-1-(1-ethylpiperidin-3-yl)-6-methyl-5-(8-methyl-[1,2,4]triazolo[1,5-a]pyridin-6-yl)-1,3-dihydro-2H-benzo[d]imidazol-2-one]
8.54 | COc1cc(-c2cc3[nH]c(=O)n([C@@H]4CCCN(CCC(C)(C)C)C4)c3cc2C(C)C)cn2ncnc12 [Example 210, (R)-1-(1-(3,3-dimethylbutyl)piperidin-3-yl)-6-isopropyl-5-(8-methoxy-[1,2,4]triazolo[1,5-a]pyridin-6-yl)-1,3-dihydro-2H-benzo[d]imidazol-2-one]
